Experimental data published in patent US20260176320A1, “MODULATORS OF G-PROTEIN COUPLED RECEPTORS” (priority 2018, published 2026).
Like-named read-outs stand apart in the source and are kept apart here.

Tests used:
mice [1] = test: Conditioned taste aversion (CTA) in mice; format: in vivo, mouse; conditions: s.c., 30 nmol/kg, saccharine preference vs vehicle
Description: A value of CTA=0.0-0.6 indicates significant aversion to a compound. The conditioned taste aversion assay measures the preference for a dilute saccharin solution that is associated with compound administration.
One week before start of experiment (Day-7), animals were transferred to single house double grommet cages. A 50 ml water bottle was placed, and consistently replaced when refilled in the same grommet to habituate the animal to a “water” side. After 7 days of baseline water consumption, animals began the taste preference procedure. On Day 1, the animals were weighed and deprived of water at […]. On acquisition day (Day 2), mice had access to a single bottle containing 0.15% saccharin solution, on the opposite side to the “water” habituated side and allowed to consume for 3 h, from 6 pm until 9 pm. The saccharine bottles were then removed and weighed to record the 3 h consumption. […] On Day 3, the water was removed and weighed at 6 pm. On Day 4, both saccharine and water bottles were weighed and returned simultaneously to respective grommet at 6 pm. On Day 5, the bottles were removed at 6 pm and weighed. Saccharine consumption was measured as a percent of the total amount of fluid consumed. The reduction of saccharin consumption during the retrieval was used as a measure of CTA strength. Liraglutide and semaglutide were used as positive controls.

GLP-1R [2] = biological target: T1, GLP-1R (Homo sapiens, UniProt P43220); test: PathHunter β-arrestin assay; format: cell-based
T1 sequence (P43220 24-463): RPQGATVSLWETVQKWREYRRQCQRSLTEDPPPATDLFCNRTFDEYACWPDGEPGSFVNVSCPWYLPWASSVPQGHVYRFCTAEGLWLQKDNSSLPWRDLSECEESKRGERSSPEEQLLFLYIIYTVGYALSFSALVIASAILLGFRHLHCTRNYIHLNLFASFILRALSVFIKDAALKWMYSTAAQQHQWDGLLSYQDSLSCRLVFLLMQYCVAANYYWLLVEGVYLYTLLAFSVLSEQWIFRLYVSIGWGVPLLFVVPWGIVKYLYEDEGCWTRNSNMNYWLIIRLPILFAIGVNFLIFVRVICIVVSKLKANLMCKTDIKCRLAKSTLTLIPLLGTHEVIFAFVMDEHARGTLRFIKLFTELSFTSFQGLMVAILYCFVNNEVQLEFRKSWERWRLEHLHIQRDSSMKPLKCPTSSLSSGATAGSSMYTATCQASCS
Summary of the method: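 β-Arrestin recruitment measured by PathHunter enzyme-fragment luminescence, read after 3 h dark incubation at room temperature with detection solution. Beforehand, agonist in a 22-point 2-fold series was applied in duplicate for 90 min at 37 °C to 5,000 cells/well in BSA-containing (0.2%) medium.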

GLP-1R [3] = biological target: T1, GLP-1R; test: HitHunter cAMP assay (GLP-1R); format: cell-based; conditions: for Emax: read-out: (Emax) GLP-1R
Summary of the method: (§1)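 cAMP accumulation read by luminescent HitHunter immunocompetition after 30 min room-temperature agonist stimulation. Agonists tested as 22-point twofold dilutions, in duplicate, on 10,000 cells/well in HBSS containing 625 μM IBMX, 10 mM HEPES and 0.2% BSA.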

GIP-R = biological target: T2, GIP-R (Homo sapiens, UniProt P48546); test: HitHunter cAMP assay (GIP-R); format: cell-based; conditions: for EC50: EC50 GIP-R/nM; for Emax: read-out: (Emax) GIP-R
T2 sequence (P48546 22-466): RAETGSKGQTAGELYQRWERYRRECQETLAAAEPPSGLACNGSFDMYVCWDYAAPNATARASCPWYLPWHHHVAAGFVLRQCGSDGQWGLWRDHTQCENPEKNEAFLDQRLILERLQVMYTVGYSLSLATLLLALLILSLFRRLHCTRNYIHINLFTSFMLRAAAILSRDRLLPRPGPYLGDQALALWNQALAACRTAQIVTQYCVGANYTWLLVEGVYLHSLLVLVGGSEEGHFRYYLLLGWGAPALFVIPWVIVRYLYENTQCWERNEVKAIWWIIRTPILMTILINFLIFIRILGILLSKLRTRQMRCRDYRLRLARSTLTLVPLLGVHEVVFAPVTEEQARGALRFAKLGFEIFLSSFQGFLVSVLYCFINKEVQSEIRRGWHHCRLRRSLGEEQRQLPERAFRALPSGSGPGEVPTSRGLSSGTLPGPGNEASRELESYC
Summary of the method: as §1

mice [4] = test: Glucose tolerance test (GTT); format: in vivo, mouse; conditions: 24 h GTT, s.c., percent of vehicle
Summary of the method: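 Compounds diluted in PBS from 1 mM DMSO stocks and given subcutaneously 15 min (5-6 h fast), 4 h (16 h overnight fast), 16 h or 24 h before intraperitoneal glucose (2 g/kg). Tail blood glucose read at 10–120 min post-glucose, at least 6 mice per time-point. Glucose AUC over time determined.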

mice [5] = conditions: general statement; cited from earlier work
GLP-1R [6] = biological target: T1, GLP-1R; conditions: general statement; cited from earlier work

CCCCCCCCCCCCCCCC(=O)N[C@@H](CCC(=O)NCCCC[C@H](NC(=O)[C@H](CO)NC(=O)[C@@H]1CCCN1C(=O)[C@@H]1CCCN1C(=O)[C@@H]1CCCN1C(=O)[C@H](C)NC(=O)CNC(=O)[C@H](CO)NC(=O)[C@H](CO)NC(=O)[C@@H]1CCCN1C(=O)CNC(=O)CNC(=O)[C@H](C)NC(=O)[C@H](CC(C)C)NC(=O)[C@H](CC(C)C)NC(=O)[C@H](Cc1c[nH]c2ccccc12)NC(=O)[C@H](CC(N)=O)NC(=O)[C@@H](NC(=O)[C@H](Cc1ccccc1)NC(=O)[C@H](CCC(=O)O)NC(=O)C(C)(C)NC(=O)[C@H](C)NC(=O)[C@H](C)NC(=O)[C@H](CCC(N)=O)NC(=O)[C@H](CCCCN)NC(=O)[C@H](CC(=O)O)NC(=O)[C@H](CC(C)C)NC(=O)[C@H](Cc1ccc(O)cc1)NC(=O)[C@@H](NC(=O)[C@H](CO)NC(=O)[C@H](Cc1ccc(O)cc1)NC(=O)[C@H](CC(=O)O)NC(=O)[C@H](CO)NC(=O)[C@@H](NC(=O)[C@H](Cc1ccccc1)NC(=O)[C@@H](NC(=O)CNC(=O)[C@H](CCC(=O)O)NC(=O)CSCC(=O)NCCN1C(=O)[C@@H](C)[C@@H](C)C1=O)[C@@H](C)O)[C@@H](C)O)[C@@H](C)CC)C(C)C)C(N)=O)C(=O)O [Compound 96]
CTA score (mice [1]): 4 (Score 4 = 76-100%)
EC50 (GLP-1R [2]): > 1000 nM
EC50 (GLP-1R [3]; EC50 GLP-1R/nM, Table 3, cAMP): 1 to 10 nM
EC50 (GLP-1R [3]; EC50 GLP-1R/nM, Table 3A, cAMP): 1 to 10 nM
Emax (GLP-1R [3]; Table 3, cAMP): 94%
Emax (GLP-1R [3]; Table 3A, cAMP): 94%
EC50 (GIP-R; Table 3, cAMP): 0.1 to 1 nM
EC50 (GIP-R; Table 3A, cAMP): 0.1 to 1 nM
Emax (GIP-R; Table 3, cAMP): 90%
Emax (GIP-R; Table 3A, cAMP): 90%
AUC score (mice [4]; dose range 5.1-15 nmol/kg): 4 (AUC score 4 = 76-100%)

CCCCCCCCCCCCCCCC(=O)N[C@@H](CCC(=O)NCCCC[C@H](NC(=O)[C@H](CO)NC(=O)[C@@H]1CCCN1C(=O)[C@@H]1CCCN1C(=O)[C@@H]1CCCN1C(=O)[C@H](C)NC(=O)CNC(=O)[C@H](CO)NC(=O)[C@H](CO)NC(=O)[C@@H]1CCCN1C(=O)CNC(=O)CNC(=O)[C@H](C)NC(=O)[C@H](CC(C)C)NC(=O)[C@H](CC(C)C)NC(=O)[C@H](Cc1c[nH]c2ccccc12)NC(=O)[C@H](CC(N)=O)NC(=O)[C@@H](NC(=O)[C@H](Cc1ccccc1)NC(=O)[C@H](CCC(=O)O)NC(=O)C(C)(C)NC(=O)[C@H](C)NC(=O)[C@H](C)NC(=O)[C@H](CCC(N)=O)NC(=O)[C@H](CCCCN)NC(=O)[C@H](CC(=O)O)NC(=O)[C@H](CC(C)C)NC(=O)[C@H](Cc1ccc(O)cc1)NC(=O)[C@@H](NC(=O)[C@H](CO)NC(=O)[C@H](Cc1ccc(O)cc1)NC(=O)[C@H](CC(=O)O)NC(=O)[C@H](CO)NC(=O)[C@@H](NC(=O)[C@H](Cc1ccccc1)NC(=O)[C@@H](NC(=O)CNC(=O)[C@H](CCC(=O)O)NC(=O)CCNC(=O)CN1CCCC1=O)[C@@H](C)O)[C@@H](C)O)[C@@H](C)CC)C(C)C)C(N)=O)C(=O)O [Compound 264]
CTA score (mice [1]): 1 (Score 1 = 0-25%)
EC50 (GLP-1R [2]): < 10 nM
EC50 (GLP-1R [3]): < 0.1 nM
Emax (GLP-1R [3]): 100%
EC50 (GIP-R; Table 3A, cAMP): 1 to 10 nM
Emax (GIP-R): 90%
AUC score (mice [4]; dose range 2-5 nmol/kg): 3 (AUC score 3 = 51-75%)

CCCCCCCCCCCCCCCC(=O)N[C@@H](CCC(=O)NCCCC[C@H](NC(=O)[C@H](C)NC(=O)[C@H](C)NC(=O)[C@H](CCC(N)=O)NC(=O)CNC(=O)[C@H](CCC(=O)O)NC(=O)[C@H](CC(C)C)NC(=O)[C@H](Cc1ccc(O)cc1)NC(=O)[C@H](CO)NC(=O)[C@H](CO)NC(=O)[C@@H](NC(=O)[C@H](CC(=O)O)NC(=O)[C@H](CO)NC(=O)[C@@H](NC(=O)[C@H](Cc1ccccc1)NC(=O)[C@@H](NC(=O)CNC(=O)[C@H](CCC(=O)O)NC(=O)[C@H](C)NC(=O)[C@@H](N)Cc1cnc[nH]1)[C@@H](C)O)[C@@H](C)O)C(C)C)C(=O)N[C@@H](CCC(=O)O)C(=O)N[C@@H](Cc1ccccc1)C(=O)N[C@H](C(=O)N[C@@H](C)C(=O)N[C@@H](Cc1c[nH]c2ccccc12)C(=O)N[C@@H](CC(C)C)C(=O)N[C@H](C(=O)N[C@@H](CCCNC(=N)N)C(=O)NCC(=O)N[C@@H](CCCNC(=N)N)C(=O)NCC(=O)O)C(C)C)[C@@H](C)CC)C(=O)O [Liraglutide, liraglutide]
signal in conditioned taste aversion models (mice [5]): strong signal in conditioned taste aversion models

glucagon-like peptide-1 [GLP-1]
β-arrestin recruitment (GLP-1R [6]): potent recruiters of β-arrestin
